Like-named read-outs stand apart in the source and are kept apart here.
Experiments:
human platelets = experiment: Human in vitro platelet aggregation; type: cell-based; settings: read-out: 50% inhibition point, IC50, against human in vitro platelet aggregation
Procedure: From each of the large brachial veins of human volunteers, 10 ml of blood per person was drawn using an 18G syringe needle. The blood was gently dropped into a 15 ml Falcon tube containing 1 ml of 3.8% sodium citrate (Citral, Yamanouchi Pharmaceutical). A stopper for the tube was closed, and slowly inverted for mixing. Then, the blood was centrifuged at 900 rpm for 10 minutes at room temperature to separate the supernatant (platelet rich fraction, platelet rich plasma, PRP). The residue was further centrifuged for 15 minutes at 2,500 rpm to obtain the supernatant (platelet poor fraction, platelet poor plasma, PPP). The platelet density of PRP was measured with a blood cell counter (Sysmex), and diluted with PPP to adjust the platelet density to 300,000 platelets/μl.
Preparation of aggregation inducers was performed in the same manner as described earlier.
For each experiment, the doses of the inducers were so set as to obtain best evaluation of the action of the study substance. That is, the concentration of each inducer at which aggregation would clearly develop in the presence of a negative control (physiological saline) but would not excessive was set for each experiment.
If aggregation is induced by high concentration ADP or high concentration epinephrine, on the other hand, primary aggregation takes place, and then secondary aggregation proceeds again, under the action, as a trigger, of alpha granules (PDGF, serotonin, ADP, etc.) liberated from activated platelets. In the present study, the effect of the study substance on secondary aggregation due to ADP or epinephrine was also investigated.
Serotonin, when used alone, minimally causes platelet aggregation. Thus, a combination of serotonin and collagen, or a combination of serotonin and ADP was used as the inducer. […] For example, if serotonin used alone induced aggregation at a dose of 1 mM, but induced little aggregation at a dose of 0.5 mM, and if ADP alone induced aggregation at a dose of 0.25 mM, but induced no aggregation at a dose of 0.11 mM, then the doses, 0.25 mM serotonin+0.05 mM ADP, were set.
Compound 2 was used as the study substance, and the preparation of the inducers was performed in the same manner as described earlier.
The measurement of the transmittance was carried out in the same manner as described earlier.

[1] = system: vascular smooth muscle cells; experiment: Synthetic type vascular smooth muscle cell proliferation (PDGF, BrdU assay); type: cell-based, rat; settings: 0.3 to 3 μM with PDGF 50 ng/ml, 24 hours
Procedure: The effect of the study substance on vascular smooth muscle cell proliferation was studied.
Thus, the effect of Compound 2 on the cell proliferation of vascular smooth muscle cells was measured in the following manner:
The rat carotid arterial tunica intima was rubbed by ballooning, and vascular smooth muscle cells were prepared by explant culture. Two weeks later, these cells were cultured in a DMEM culture medium (Gibco) containing 10% fetal bovine serum. The cultures were subcultured several times for stabilization, and then planted at a cell density of 5×10^3 cells/cm^2 for use in experiments. Compound 2 in combination with 50 ng/ml of the growth factor PDGF (Sigma) was added to the above planted cells and, 24 hours later, the cell density was measured by BrdU assay (Science '82, 218, p. 474, Cytometry '85, 6, p. 584). The cell density in the absence of the drug was measured as a control.
Relative smooth muscle cell count (%)=[cell count in the experimental group]/[cell count in the control]×100.

[2] = system: rat lauric acid-induced leg necrosis; experiment: Rat lauric acid-induced peripheral circulatory disorder model (leg necrosis score); type: in vivo; settings: for leg necrosis score (in words): iv once daily 14 days, 10, 30 or 100 μg/kg; for alleviation of the disorder (in words): prior administration
Procedure: A rat lauric acid-induced peripheral circulatory disorder model, which is widely used as a peripheral circulatory disorder model, was used to investigate the effect of the compounds of the present invention on an in vivo pathophysiological model of circulatory disorder.
Lauric acid (1.5 mg/animal) was administered into the rat femoral artery to induce leg necrosis.
A solvent (physiological saline) was administered as a control.
The progress of foot/leg lesions was observed 3, 7, 10 and 14 days after lauric acid administration, and evaluated by the following leg necrosis score. The score was given to each of the digits, and the sum of the scores of the respective digits was taken as a lesion index. If the disorder extended to the plantar portion, 5 points were further added.
Score 1: Blackening is limited to the tiptoe.
Score 2: Blackening extends to the digital portion.
Score 3: Necrosis of the digit.
Score 4: Loss of the digit.
A solvent (physiological saline) was similarly administered as a control.
The progress of foot/leg lesions was observed 3, 7, 10 and 14 days after lauric acid administration, and evaluated by the above leg necrosis score.
A test was conducted in the same manner as in (2) above.

platelets [3] = experiment: In vitro platelet aggregation by various inducers, rat platelets; type: cell-based; settings: Rattus norvegicus
Excerpt: (§1) Next, the suppression of platelet aggregation by the compounds of the present invention was studied in the same manner as described above with the use of not only collagen, but also arachidonic acid, ADP, thrombin, serotonin, epinephrine and U46619 (pseudo-thromboxane A2 substance) as inducers.
(§2) As platelets, platelets prepared from rats and guinea pigs as well as rabbits were also used.
(§3) Collagen and ADP were purchased from MCM, and used in accordance with the method of preparation described in the manuals attached to the purchased products. Serotonin, epinephrine and thrombin were purchased from Sigma, and used as solutions in physiological saline for injection (Otsuka Pharmaceutical Factory). Arachidonic acid was purchased from Cayman, and dispersed in physiological saline for injection (Otsuka Pharmaceutical Factory) with the use of an immersion type ultrasonic oscillator (US150, NIPPON SEIKI, tip end diameter ca. 3.5 mm). U46619 (pseudo-thromboxane substance) was purchased from FUNAKOSHI, and dissolved in physiological saline for injection (Otsuka Pharmaceutical Factory) when used.
(§4) Collagen (0.1 to 1 μg/ml), arachidonic acid (1 mM), ADP (1 μM), thrombin (1 U/ml), serotonin (100 μM), epinephrine (100 to 200 μM), and U46619 (3 μM) were used.
(§5) Indomethacin was used as a positive control for measuring the suppression of platelet aggregation induced by collagen.

platelets [4] = experiment: In vitro platelet aggregation by various inducers, rabbit platelets; type: cell-based; settings: for IC50: Oryctolagus cuniculus, Platelet, rabbit platelets, read-out: 50% inhibition point, IC50, for in vitro platelet aggregation
Excerpt: as §1, §2, §3, §4, §5

**Q.** CC/C=C\C/C=C\C/C=C\C/C=C\C/C=C\C/C=C\CCC(=O)NCCC1CCCN1C (racemic) [Compound 2, (4Z,7Z,10Z,13Z,16Z,19Z)-N-[2-(1-methylpyrrolidin-2-yl)ethyl]docosahexaenoamide] was tested. Which IC50 (human platelets; inducer ADP (0.5˜1) μM, primary aggregation) did it give?
**A.** Its IC50 is 30 µM.

**Q.** And the IC50 (human platelets; inducer ADP (1˜2.5) μM, secondary aggregation)?
**A.** The IC50 was 0.57 µM.

**Q.** And the IC50 (human platelets; inducer Arachidonic acid (1˜2) μM)?
**A.** Its IC50 is 80 µM.

**Q.** What about the IC50 (human platelets; inducer Collagen (0.075˜0.25) μg/ml) of the same compound?
**A.** The IC50 was 13 µM.

**Q.** And the IC50 (human platelets; inducer Epinephrine 1 μM, primary aggregation)?
**A.** Its IC50 is 33 µM.

**Q.** What about the IC50 (human platelets; inducer Epinephrine (1˜3) μM, secondary aggregation) of the same compound?
**A.** The IC50 was 2.7 µM.

**Q.** And the IC50 (human platelets; inducer Serotonin + Collagen, (0.25˜0.5) μM + (0.05˜0.2) μg/ml)?
**A.** Its IC50 is 15 µM.

**Q.** And the IC50 (human platelets; inducer Thrombin (0.2˜0.25) U/ml)?
**A.** The IC50 was 57 µM.

**Q.** And the IC50 (human platelets; inducer U46619 (pseudo-thromboxane A2) (5˜10) μM)?
**A.** Its IC50 is 53 µM.

**Q.** And the “vascular smooth muscle cell proliferation (in words)” value [1]?
**A.** Its value is “suppress vascular smooth muscle cell proliferation concentration-dependently”.

**Q.** And the “leg necrosis score (in words)” value ([2]; administration after induction: first dose 6 hours after lauric acid)?
**A.** Its value is “improve the leg necrosis score dose-dependently”.

**Q.** And the “leg necrosis score (in words)” value ([2]; administration started 1 hour before lauric acid)?
**A.** The value was “improve the leg necrosis score dose-dependently”.

**Q.** And the “alleviation of the disorder (in words)” value ([2]; dose of 10 μg/kg)?
**A.** Its value is “tended to alleviate the disorder”.

**Q.** And the “alleviation of the disorder (in words)” value ([2]; doses of 30 and 100 μg/kg)?
**A.** The value was “alleviated the disorder significantly”.

**Q.** What about the IC50 (platelets [3]; read-out: 50% aggregation inhibition point, collagen-induced aggregation, rat platelets) of the same compound?
**A.** The IC50 was about 11 µM.

**Q.** And the IC50 (platelets [3]; read-out: 50% inhibition point, IC50, for in vitro platelet aggregation, inducer ADP (1 μM), rat platelets)?
**A.** Its IC50 is over 100 µM.

**Q.** What about the IC50 (platelets [3]; read-out: 50% inhibition point, IC50, for in vitro platelet aggregation, inducer collagen (0.1 to 1 μg/ml), rat platelets) of the same compound?
**A.** Its IC50 is 11 ± 7 µM.

**Q.** What about the IC50 (platelets [4]; inducer ADP (1 μM)) of the same compound?
**A.** Its IC50 is over 100 µM.

**Q.** And the IC50 (platelets [4]; inducer U46619 (3 μM))?
**A.** The IC50 was 50 ± 10 µM.

**Q.** What about the IC50 (platelets [4]; inducer arachidonic acid (1 mM)) of the same compound?
**A.** Its IC50 is over 100 µM.

**Q.** And the IC50 (platelets [4]; inducer collagen (0.1 to 1 μg/ml))?
**A.** The IC50 was 2.1 ± 0.8 µM.

**Q.** And the “inhibition of platelet aggregation induced by arachidonic acid, ADP and thrombin (in words)” value (platelets [4]; platelets from the rabbit, the rat or the guinea pig)?
**A.** Its value is “either did not inhibit platelet aggregation, or even when it inhibited platelet aggregation, its degree of inhibition was very low”.
